According to ChEMBL document CHEMBL1909046, “DrugMatrix in vitro pharmacology data”:

Assays:
[1] = target: Tyrosine-protein kinase Fyn (Homo sapiens, UniProt P06241); assay: biochemical; assay type: cell-based, Insect cells;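 further: enzymatic inhibition of Fyn kinase activity measured with Poly(Glu:Tyr) as the phosphorylation substrate; in other assays of this panel Not Active means under 50% inhibition at 10 µM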
[2] = target: T1, Polyunsaturated fatty acid lipoxygenase ALOX15 (Oryctolagus cuniculus, UniProt P12530); assay: biochemical; assay type: tissue-based, Reticulocytes;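 further: inhibition of 15-lipoxygenase enzyme activity measured with linoleic acid as the substrate; in other assays of this panel Not Active means under 50% inhibition at 10 µM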
T1 sequence (P12530 whole entry): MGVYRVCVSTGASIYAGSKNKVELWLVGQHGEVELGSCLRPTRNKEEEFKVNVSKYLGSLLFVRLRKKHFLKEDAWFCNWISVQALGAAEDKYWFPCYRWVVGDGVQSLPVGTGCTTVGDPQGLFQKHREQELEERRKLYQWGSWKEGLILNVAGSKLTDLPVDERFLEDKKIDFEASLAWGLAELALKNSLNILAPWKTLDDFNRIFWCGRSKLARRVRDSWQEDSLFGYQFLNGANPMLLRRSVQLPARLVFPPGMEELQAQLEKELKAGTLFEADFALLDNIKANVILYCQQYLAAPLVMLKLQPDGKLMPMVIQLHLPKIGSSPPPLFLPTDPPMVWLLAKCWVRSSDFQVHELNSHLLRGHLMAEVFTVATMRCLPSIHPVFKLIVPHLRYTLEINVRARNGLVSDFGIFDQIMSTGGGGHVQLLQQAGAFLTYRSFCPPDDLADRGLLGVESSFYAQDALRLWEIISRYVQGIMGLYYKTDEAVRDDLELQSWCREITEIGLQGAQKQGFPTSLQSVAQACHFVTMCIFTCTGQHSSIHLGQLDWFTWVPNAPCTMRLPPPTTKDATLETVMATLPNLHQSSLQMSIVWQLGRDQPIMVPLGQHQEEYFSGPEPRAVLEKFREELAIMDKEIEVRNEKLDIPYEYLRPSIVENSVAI

[3] = DRUGMATRIX: Atrial Natriuretic Factor (ANF) radioligand binding (ligand: [125I] ANF (rat)); assay type: cell membranes, Cavia porcellus, Dunkin-Hartley, Adrenal gland, Membrane; conditions: Not Active = under 50% inhibition at 10 µM
[4] = target: T2, 3-hydroxy-3-methylglutaryl-coenzyme A reductase (Homo sapiens, UniProt P04035); parameters: species or system Escherichia coli;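 further: enzyme inhibition assay of HMG-CoA reductase using radiolabeled [14C]HMG-CoA as substrate; in other assays of this panel Not Active means under 50% inhibition at 10 µM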
T2 sequence (P04035 whole entry): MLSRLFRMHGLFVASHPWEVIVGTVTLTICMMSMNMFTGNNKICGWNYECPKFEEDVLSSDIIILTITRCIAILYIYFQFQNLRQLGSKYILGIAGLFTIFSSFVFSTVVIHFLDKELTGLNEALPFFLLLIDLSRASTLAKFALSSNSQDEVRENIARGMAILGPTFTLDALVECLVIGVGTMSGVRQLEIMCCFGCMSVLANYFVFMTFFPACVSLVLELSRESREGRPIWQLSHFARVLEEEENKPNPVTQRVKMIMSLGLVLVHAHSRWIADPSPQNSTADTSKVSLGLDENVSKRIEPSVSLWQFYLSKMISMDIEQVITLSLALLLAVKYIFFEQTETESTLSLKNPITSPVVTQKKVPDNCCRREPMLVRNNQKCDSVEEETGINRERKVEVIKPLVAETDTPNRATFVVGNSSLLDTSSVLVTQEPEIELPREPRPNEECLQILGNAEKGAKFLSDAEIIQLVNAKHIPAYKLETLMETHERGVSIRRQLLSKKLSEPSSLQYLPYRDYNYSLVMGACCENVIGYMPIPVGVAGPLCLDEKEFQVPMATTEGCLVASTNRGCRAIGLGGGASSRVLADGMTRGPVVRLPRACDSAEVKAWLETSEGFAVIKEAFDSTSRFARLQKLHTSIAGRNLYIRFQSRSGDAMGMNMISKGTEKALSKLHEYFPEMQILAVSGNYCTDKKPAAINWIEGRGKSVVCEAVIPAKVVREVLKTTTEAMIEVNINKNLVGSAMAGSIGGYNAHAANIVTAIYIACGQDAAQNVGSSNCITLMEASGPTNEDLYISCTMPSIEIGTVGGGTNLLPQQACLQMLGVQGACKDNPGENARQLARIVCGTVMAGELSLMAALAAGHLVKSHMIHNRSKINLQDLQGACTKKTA

[5] = DRUGMATRIX: Calcium Channel Type L, Dihydropyridine radioligand binding (ligand: [3H] Nitrendipine); assay type: cell membranes, Rattus norvegicus, Wistar, Cerebral cortex, Membrane; conditions: Not Active = under 50% inhibition at 10 µM
[6] = target: Melanocortin receptor 4 (Homo sapiens, UniProt P32245); assay type: cell membranes, HEK293, Membrane; conditions: hek293; further: in other assays of this panel Not Active means under 50% inhibition at 10 µM
Chain of Melanocortin receptor 4 (P32245 whole entry): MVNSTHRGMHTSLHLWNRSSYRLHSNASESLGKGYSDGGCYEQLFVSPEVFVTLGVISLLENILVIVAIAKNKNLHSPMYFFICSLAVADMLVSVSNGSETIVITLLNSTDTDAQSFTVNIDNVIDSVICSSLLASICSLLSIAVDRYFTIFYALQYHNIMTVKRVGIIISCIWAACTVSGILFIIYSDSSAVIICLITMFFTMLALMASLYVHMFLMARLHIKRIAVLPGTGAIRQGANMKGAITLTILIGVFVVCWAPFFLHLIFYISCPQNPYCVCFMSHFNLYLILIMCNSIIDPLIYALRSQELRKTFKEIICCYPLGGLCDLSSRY

[7] = target: Vasopressin V1a receptor (Homo sapiens, UniProt P37288); assay type: cell membranes, Membrane; conditions: hek293; further: in other assays of this panel Not Active means under 50% inhibition at 10 µM
Chain of Vasopressin V1a receptor (P37288 whole entry): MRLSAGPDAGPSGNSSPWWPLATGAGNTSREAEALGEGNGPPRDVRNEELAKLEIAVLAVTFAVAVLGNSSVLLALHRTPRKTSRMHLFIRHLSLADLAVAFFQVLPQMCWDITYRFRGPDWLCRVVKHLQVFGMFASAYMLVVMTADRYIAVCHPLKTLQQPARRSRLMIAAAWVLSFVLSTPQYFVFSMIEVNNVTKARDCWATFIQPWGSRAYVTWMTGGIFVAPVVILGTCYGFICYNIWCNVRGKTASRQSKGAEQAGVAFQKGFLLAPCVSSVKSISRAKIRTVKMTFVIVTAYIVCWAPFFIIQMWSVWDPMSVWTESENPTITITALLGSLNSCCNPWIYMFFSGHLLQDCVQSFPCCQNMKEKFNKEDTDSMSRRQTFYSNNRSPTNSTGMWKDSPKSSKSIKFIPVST

Chain of Tyrosine-protein kinase Fyn (P06241 whole entry): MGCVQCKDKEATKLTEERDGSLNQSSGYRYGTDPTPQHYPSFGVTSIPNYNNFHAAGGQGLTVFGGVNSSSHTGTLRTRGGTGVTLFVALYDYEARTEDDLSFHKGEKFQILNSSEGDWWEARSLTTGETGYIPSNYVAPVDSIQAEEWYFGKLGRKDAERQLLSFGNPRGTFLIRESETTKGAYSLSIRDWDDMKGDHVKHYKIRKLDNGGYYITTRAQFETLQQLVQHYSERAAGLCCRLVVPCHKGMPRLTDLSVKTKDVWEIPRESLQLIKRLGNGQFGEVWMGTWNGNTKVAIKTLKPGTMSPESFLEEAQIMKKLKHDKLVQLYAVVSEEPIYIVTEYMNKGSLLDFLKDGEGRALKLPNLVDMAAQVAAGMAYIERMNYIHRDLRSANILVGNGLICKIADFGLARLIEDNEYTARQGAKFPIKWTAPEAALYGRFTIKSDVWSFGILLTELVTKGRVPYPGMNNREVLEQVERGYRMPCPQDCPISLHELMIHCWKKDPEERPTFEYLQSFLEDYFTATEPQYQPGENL

Row | Compound | IC50 ([1]; insect cells) | IC50 ([2]; reticulocytes) | IC50 [3] | Ki [3] | IC50 [4] | IC50 [5] | Ki [5] | IC50 [6] | IC50 [7] | IC50 ([2]; read-out: IC50) | IC50 ([1]; read-out: IC50) | IC50 ([5]; read-out: IC50) | Ki ([5]; read-out: Ki) | Ki ([2]; reticulocytes) | Ki [4] | Ki [6] | Ki [7]
1 | CC(C)(C)NCC(O)c1cc(Cl)c(N)c(Cl)c1 (stereo unspecified) [CLENBUTEROL] | Not Active | Not Active | Not Active | Not Active | Not Active | Not Active | Not Active | Not Active | Not Active | – | – | – | – | – | – | – | –
2 | CC(O)CO (stereo unspecified) [PROPYLENE GLYCOL] | Not Active | Not Active | Not Active | Not Active | Not Active | Not Active | Not Active | Not Active | Not Active | – | – | – | – | – | – | – | –
3 | CC1Cc2ccccc2N1NC(=O)c1ccc(Cl)c(S(N)(=O)=O)c1 (stereo unspecified) [INDAPAMIDE] | Not Active | – | Not Active | Not Active | Not Active | Not Active | Not Active | Not Active | Not Active | 2.92 µM | – | – | – | – | – | – | –
4 | c1ccc(Nc2ccc(Nc3ccccc3)cc2)cc1 | Not Active | – | Not Active | Not Active | Not Active | Not Active | Not Active | Not Active | Not Active | 2.88 µM | – | – | – | – | – | – | –
5 | COc1cc2nc(N3CCN(C(=O)C4COc5ccccc5O4)CC3)nc(N)c2cc1OC (stereo unspecified) [DOXAZOSIN] | Not Active | Not Active | Not Active | Not Active | Not Active | Not Active | Not Active | Not Active | Not Active | – | – | – | – | – | – | – | –
6 | CCOc1ccc(NC(C)=O)cc1 [PHENACETIN] | Not Active | Not Active | Not Active | Not Active | Not Active | Not Active | Not Active | Not Active | Not Active | – | – | – | – | – | – | – | –
7 | CN(C)CCCN1c2ccccc2Sc2ccc(Cl)cc21 [CHLORPROMAZINE] | – | – | Not Active | Not Active | Not Active | Not Active | Not Active | – | Not Active | 16 µM | 8.68 µM | – | – | – | – | – | –
8 | CC(C)[C@H]1C(=O)N2CCC[C@H]2[C@]2(O)O[C@](NC(=O)[C@@H]3C=C4c5cccc6[nH]cc(c56)C[C@H]4N(C)C3)(C(C)C)C(=O)N12 [ERGOCORNINE] | Not Active | Not Active | Not Active | Not Active | Not Active | Not Active | Not Active | Not Active | Not Active | – | – | – | – | – | – | – | –
9 | CC(C)(Oc1ccc(Cl)cc1)C(=O)O [CLOFIBRIC ACID] | Not Active | Not Active | Not Active | Not Active | Not Active | Not Active | Not Active | Not Active | Not Active | – | – | – | – | – | – | – | –
10 | CCC(C)n1ncn(-c2ccc(N3CCN(c4ccc(OCC5COC(Cn6cncn6)(c6ccc(Cl)cc6Cl)O5)cc4)CC3)cc2)c1=O (stereo unspecified) [ITRACONAZOLE] | – | Not Active | Not Active | Not Active | Not Active | Not Active | Not Active | Not Active | Not Active | – | 3.89 µM | – | – | – | – | – | –
11 | O=c1oc2ccccc2c(O)c1Cc1c(O)c2ccccc2oc1=O [DICUMAROL] | Not Active | Not Active | Not Active | Not Active | Not Active | Not Active | Not Active | Not Active | Not Active | – | – | – | – | – | – | – | –
12 | Cc1onc(O)c1CC(N)C(=O)O (racemic) [(R,S)-AMPA] | Not Active | Not Active | Not Active | Not Active | Not Active | Not Active | Not Active | Not Active | Not Active | – | – | – | – | – | – | – | –
13 | CC1=C2C(=CO[C@H](C)[C@H]2C)C(O)=C(C(=O)O)C1=O [CITRININ] | Not Active | Not Active | Not Active | Not Active | Not Active | Not Active | Not Active | Not Active | Not Active | – | – | – | – | – | – | – | –
14 | Nc1nc2c(ncn2COCCO)c(=O)[nH]1 [ACYCLOVIR] | Not Active | Not Active | Not Active | Not Active | Not Active | Not Active | Not Active | Not Active | Not Active | – | – | – | – | – | – | – | –
15 | CCOC(=O)C1=C(COCCN)NC(C)=C(C(=O)OC)C1c1ccccc1Cl (stereo unspecified) [AMLODIPINE] | Not Active | Not Active | Not Active | Not Active | Not Active | – | – | Not Active | Not Active | – | – | 0.031 µM | 0.02 µM | – | – | – | –
16 | O=C1CC[C@@H](N2C(=O)c3ccccc3C2=O)C(=O)N1 | Not Active | Not Active | Not Active | Not Active | Not Active | Not Active | Not Active | Not Active | Not Active | – | – | – | – | – | – | – | –
17 | Cc1ccc(N(CC2=NCCN2)c2cccc(O)c2)cc1 [PHENTOLAMINE] | Not Active | Not Active | Not Active | Not Active | Not Active | Not Active | Not Active | Not Active | Not Active | – | – | – | – | – | – | – | –
18 | CC(C)C(Br)C(=O)NC(N)=O (stereo unspecified) [BROMISOVALUM] | Not Active | Not Active | Not Active | Not Active | Not Active | Not Active | Not Active | Not Active | Not Active | – | – | – | – | – | – | – | –
19 | Cc1ccccc1N1C(=O)c2cc(S(N)(=O)=O)c(Cl)cc2NC1C (stereo unspecified) [METOLAZONE] | Not Active | Not Active | Not Active | Not Active | Not Active | Not Active | Not Active | Not Active | Not Active | – | – | – | – | – | – | – | –
20 | C1CCC(C(CC2CCCCN2)C2CCCCC2)CC1 (stereo unspecified) [PERHEXILINE] | – | Not Active | Not Active | Not Active | Not Active | Not Active | Not Active | Not Active | Not Active | – | 4.06 µM | – | – | – | – | – | –
21 | CC(C)CN(C[C@@H](O)[C@H](Cc1ccccc1)NC(=O)O[C@H]1CCOC1)S(=O)(=O)c1ccc(N)cc1 | Not Active | Not Active | Not Active | Not Active | Not Active | Not Active | Not Active | Not Active | Not Active | – | – | – | – | – | – | – | –
22 | Cc1ccc2cc3c(ccc4ccccc43)c3c2c1CC3 [3-METHYLCHOLANTHRENE] | – | Not Active | Not Active | Not Active | Not Active | Not Active | Not Active | Not Active | Not Active | – | 25.2 µM | – | – | – | – | – | –
23 | CADMIUM ACETATE | – | Not Active | Not Active | Not Active | Not Active | Not Active | Not Active | Not Active | Not Active | – | – | – | – | Not Active | Not Active | Not Active | Not Active
24 | LEAD (II) ACETATE | – | Not Active | Not Active | Not Active | Not Active | Not Active | Not Active | Not Active | Not Active | – | – | – | – | Not Active | Not Active | Not Active | Not Active
